Experimental data taken from patent US12497530B2, “Active energy ray polymerization initiator, active energy ray curing composition, active energy ray curing ink, aqueous active energy ray curing ink, container, image forming device, image forming method, and method of manufacturing active energy ray polymerization initiator” (Ricoh Company, Ltd., priority 2021, dated 2025).

Assay: Absorption spectrum in methylene chloride at 50 ppm
Format: physicochemical
Details: for Absorption of light (absorption spectrum): methylene chloride, 50 ppm, FIGS. 1 to 4
Procedure: One way of measuring the λmax of an active energy ray polymerization initiator is to dissolve an active energy ray polymerization initiator in methylene chloride at 50 ppm followed by measuring the absorption spectrum of this solution by a spectrophotometer for ultraviolet, visible light, and near infrared, V-680, manufactured by JASCO Corporation.
The absorption spectrum was measured by a spectrophotometer V-680 for UV, visible light, and near IR, manufactured by JASCO Corporation.
The absorption spectra of the active energy ray polymerization initiators Ref-1, Ref-2, and Ref-4 were measured as described above.

Row | Compound | Support of LED light source of 365 nm, 385 nm, and 395 nm (judged from absorption spectrum) | Absorption of light (absorption spectrum)
1 | CCCCCCCCCCCCOc1ccc2sc3ccccc3c(=O)c2c1 [Ref-1, 2-dodecyloxy thioxanthone] | support an LED light source of 365 nm, 385 nm, and 395 nm | fully absorb light having a wavelength of 400 nm or less
2 | CC(C)(O)C(=O)c1ccccc1 [Ref-4, 2-Hydroxy-2-methyl-1-phenylpropane-1-one] | – | does not absorb light having a wavelength of 350 nm or greater at all
